Assay results taken from US11447485B2, “Class of bifunctional compounds with quanternary ammonium salt structure” (Beijing Showby Pharmaceutical Co., Ltd., priority 2016, dated 2022).
Read-outs that look alike come from different tables or passages of the source.

Key:
[1] = Liver microsome metabolic stability in vitro (human); details: Human liver microsomes
Protocol: (§1) The area ratio of the 0 min sample was taken as 100%, and the remaining percentage of the compound after incubation at different times was obtained at each time point by comparison with the sample. With the natural logarithm of this percentage on the ordinate and time on the abscissa, a scatter plot was drawn to simulate a straight line with a negative slope of k. The parameters were calculated according to the formula.
(§2) Liver weight indicates the liver weight (g) per kilogram of body weight, and P450 indicates the amount (mg) of P450 enzyme per gram of liver.

[2] = Liver microsome metabolic stability in vitro (SD rat); details: SD rat liver microsomes
Protocol: as §1, §2

[3] = Liver microsome metabolic stability in vitro (Beagle dog); details: Beagle dog liver microsomes
Protocol: as §1, §2

[4] = tested on: heart rate of Beagle dogs; test: Heart rate changes after iv administration in Beagle dogs; assay type: in vivo, Beagle dog
Protocol: Beagle dogs were randomly divided into two groups, half male and half female, and were intravenously injected (iv) with 7.5% ethanol solution of compounds of the invention and control compound. Each compound was set up in two dosage groups of 0.01 mg/kg and 0.10 mg/kg.

[5] = Lung homogenate stability in vitro (dog); assay type: in vitro ADME, Beagle dog; details: 8 h, 37° C.
Protocol: The compounds of the invention were respectively incubated with the lung homogenate of Beagle dogs for 8 hours in a water bath at 37° C., and sample was analysed by LC-MS/MS when the reaction was terminated.

[6] = tested on: guinea pig tracheal smooth muscle (MABA); test: MABA activity: relaxation of CCh pre-constricted guinea pig isolated trachea; details: Cavia porcellus; CCh 3×10^−6 mol/L
Protocol: (1) The Constriction Effect of Tracheal Smooth Muscle of Guinea Pig Induced by the Example Compounds Antagonizing Carbachol (CCh)
(§3) Preparation of an isolated tracheal smooth muscle specimen of a guinea pig: same as Experiment Example 1.
Administration Method: After the trachea flake were stabilized, carbachol with a final concentration of 3×10^−6 mol/L was added, and administration was started when the pressure value of the trachea flake was increased to a stable platform. The experiments were divided into blank group and each test sample administration group. DMSO solution prepared from K—H solution and 50 μl of each test sample solution were added to each group respectively. The test sample administration group was added with 10^−9, 0.3×10^−8, 10^−8, 0.3×10^−7, 10^−7, 0.3×10^−6 and 10^−6 mol/L of test compound and control substance at cumulative concentration. The blank group was added with corresponding diluted DMSO solution. Medlab was used to record the relaxation degree of smooth muscle of the trachea flake. Finally, isoproterenol with a final concentration of 10^−5 mol/L was added as 100% relaxation.

[7] = tested on: β2 receptor in guinea pig tracheal smooth muscle; test: BA activity: guinea pig isolated trachea pre-treated with histamine; details: Cavia porcellus
Protocol: (3) The Antagonism of the Example Compounds on β2 Receptor in Guinea Pig Tracheal Smooth Muscle
as §3
Administration Method: After the trachea flake was stabilized, histamine solution with a final concentration of 3×10^−5 mol/L was added for 10 min, carbachol with a final concentration of 3×10^−6 mol/L was added (observing β receptor antagonism), and administration was started when the pressure value of the trachea flake was increased to a stable platform. The experiments were divided into a blank group, a histamine+blank group, each test sample administration group and a histamine+each test sample administration group. DMSO solution prepared by K—H solution and 50 μl of test sample solution were added to each group of the blank group and each test sample administration group respectively. The histamine+blank group and histamine+each test sample administration group were added with 50 μl histamine solution for 10 min respectively, then added with DMSO solution prepared by K—H solution and 50 μl test sample solution. The test sample administration group was added with the compounds to be tested with final concentrations of 10^−9, 0.3×10^−8, 10^−8, 0.3×10^−7, 10^−7, 0.3×10^−6 and 10^−6 mol/L at cumulative concentration, and the blank group was added with corresponding diluted DMSO solution. The histamine+each test sample administration group was added with histamine for 10 min, and then added with the test compounds with final concentrations of 10^−9, 0.3×10^−8, 10^−8, 0.3×10^−7, 10^−7, 0.3×10^−6 and 10^−6 mol/L at cumulative concentration. After the histamine+blank group was added with histamine for 10 m, corresponding diluted DMSO solution was added. Medlab was used to record the relaxation degree of smooth muscle of the trachea flake. Finally theophylline with a final concentration of 2×10^−4 mol/L was added as 100% relaxation.

[8] = Lung homogenate stability in vitro (human); assay type: in vitro ADME; details: 8 h, 37° C.
[9] = tested on: M receptor of guinea pig tracheal smooth muscle; test: MA activity: guinea pig isolated trachea, propranolol blocks β receptor, CCh constriction; details: Cavia porcellus; propranolol 10^−5 mol/L, CCh 3×10^−6 mol/L
Protocol: (2) Blocking Effect of Example Compounds on M Receptor of Guinea Pig Tracheal Smooth Muscle
as §3
Administration method: After trachea flake was stabilized, propranolol hydrochloride solution with a final concentration of 10^−5 mol/L was added to block β receptor for 10 min, carbachol with a final concentration of 3×10^−6 mol/L was added (observing M receptor antagonism of compound after propranolol blocks β receptor), and administration was started when the pressure value of the trachea flake was increased to a stable platform. The experiments were divided into a blank group, a propranolol+blank group, each test sample administration group and a propranolol+each test sample administration group. DMSO solution prepared by K—H solution and 50 μl of test sample solution were added to each group of the blank group and each test sample administration group respectively. The propranolol+blank group and propranolol+each test sample administration group were added with 50 μl propranolol solution for 10 min respectively, and then added with DMSO solution prepared from K—H solution and 50 μl of test sample solution. The test sample administration group was added with the compounds to be tested with final concentrations of 10^−9, 0.3×10^−8, 10^−8, 0.3×10^−7, 10^−7, 0.3×10^−6 and 10^−6 mol/L at cumulative concentration, and the blank group was added with corresponding diluted DMSO solution. The propranolol+each test sample administration group was added with propranolol for 10 min, and then added with the compounds to be tested with final concentrations of 10^−9, 0.3×10^−8, 10^−8, 0.3×10^−7, 10^−7, 0.3×10^−6 and 10^−6 mol/L at cumulative concentration. After the propranolol+blank group was added with propranolol for 10 min, corresponding diluted DMSO solution was added. Medlab was used to record the relaxation degree of tracheal smooth muscle, finally sodium nitroprusside with a final concentration of […] was added as 100% relaxation.

[10] = tested on: tracheal smooth muscle of guinea pig; test: Relaxation of CCh-induced constriction of isolated guinea pig tracheal smooth muscle (Experimental Example 1); details: for Onset time (min) ± SD / Time for eliminating inhibition effect (min): CCh 3 × 10^−6 mol/L; for EC50: Cavia porcellus, read-out: EC50 (μM) ± SD
Protocol: The upper end was connected with a muscle tension transducer, and the specimen was given a resting tension of 1.0 g. Muscle tension changes were recorded, nutrient solution was changed every 20 min, and the experiment was started after 60 min of equilibrium.
Administration Method: After the trachea flake were stabilized, 3×10^−6 mol/L CCh was added to the bath. […] Diastolic condition of the trachea flake was observed. If no response occurred (below the threshold concentration), the next dosage was continued to be added in the order. If any response occurred, the next dosage was added until its diastolic platform was reached. The above operation was repeated until the shrink curve reached the minimum. Finally, 10^−6 mol/L isoproterenol was added to establish maximum relaxation, and the curve was recorded.
Statistical Methods: Statistics was performed using the Sigma Stat statistical software package, the data was analyzed by using the variance analysis. Student-Newman-Keuls (SNK) test was used in comparison among multiple sample averages number. The statistical test level was α=0.05 (bilateral).

[11] = target: T1, human recombinant β2 adrenoceptor (Homo sapiens, UniProt P07550); test: cell-based; assay type: cell-based; details: EC50 (β1)/EC50 (β2)
T1 construct: expressed in transfected cells
T1 sequence (P07550 whole entry): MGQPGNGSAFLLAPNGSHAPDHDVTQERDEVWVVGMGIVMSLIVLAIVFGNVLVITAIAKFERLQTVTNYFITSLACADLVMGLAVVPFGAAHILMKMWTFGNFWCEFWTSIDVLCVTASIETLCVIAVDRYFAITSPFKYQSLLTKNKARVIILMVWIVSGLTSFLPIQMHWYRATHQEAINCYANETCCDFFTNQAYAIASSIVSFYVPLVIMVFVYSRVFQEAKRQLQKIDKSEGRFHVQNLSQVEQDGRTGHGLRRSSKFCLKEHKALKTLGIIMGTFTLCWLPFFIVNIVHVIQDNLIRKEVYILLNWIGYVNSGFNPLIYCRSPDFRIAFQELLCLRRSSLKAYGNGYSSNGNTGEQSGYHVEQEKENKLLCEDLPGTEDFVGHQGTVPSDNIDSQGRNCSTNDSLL

[12] = tested on: bronchoconstriction response in the trachea of guinea pig induced by Mch; test: Bronchoconstriction induced by methacholine (Mch) in anaesthetized guinea pigs, airway dripping (Raw, Cdyn); details: Mch 10 μg/kg iv; for Cdyn (ml/cmH2O) / Raw (cmH2O/ml/s): 30 min, Mean ± S.E.M
[13] = in vitro, listed as Tiotropium bromine

Compound: C[N+]1(C)CCC(OC(=O)Nc2cc(CCC(=O)Nc3ccc(CNC[C@H](O)c4ccc(O)c5[nH]c(=O)ccc45)cc3)ccc2-c2ccccc2)CC1.O=C([O-])C(F)(F)F [4-({[5-(2-{[4-({[(2R)-2-hydroxy-2-(8-hydroxy-2-oxo-1,2-dihydroquinolin-5-yl)ethyl]amino}methyl)phenyl]carbamoyl}ethyl)-2-phenylphenyl]carbamoyl}oxy)-1,1-dimethylpiperidin-1-onium trifluoroacetate, reference compound]
- liver extraction rate (ERh) [1]: 0.36
- liver extraction rate (ERh) [2]: 0.48
- liver extraction rate (ERh) [3]: 0.43
- 0.5-4 h area increase under heart rate curve (%) ([4]; 0.01 mg/kg iv): 35.2%
- 0.5-4 h area increase under heart rate curve (%) ([4]; 0.10 mg/kg iv): 109%

Compound: CC(Cc1ccc(OCCC[N+]23CCC(CC2)[C@@H](OC[C@@](O)(c2ccccc2)C2CCCC2)C3)cc1)NC[C@H](O)c1ccc(O)c2[nH]c(=O)ccc12.[Br-] (stereo partly drawn) [Compound 80]
- Residual rate after incubation of dog lung homogenate (%) [5]: 92%
- liver extraction rate (ERh) [1]: 0.92
- EC50 [6]: 3.3 ± 0.9 nM
- EC50 ([7]; read-out: BA (EC50, nM)): 9.9 ± 1.7 nM
- Residual rate after incubation of human lung homogenate (%) [8]: 92%
- liver extraction rate (ERh) [2]: 0.92
- liver extraction rate (ERh) [3]: 0.91
- EC50 [9]: 13.3 ± 1.2 nM
- 0.5-4 h area increase under heart rate curve (%) ([4]; 0.01 mg/kg iv): 4%
- 0.5-4 h area increase under heart rate curve (%) ([4]; 0.10 mg/kg iv): −5.1%

Compound: OCc1cc([C@@H](O)CNCCCOc2ccc(OCCC[N+]34CCC(CC3)[C@@H](OC[C@@](O)(c3ccccc3)C3CCCC3)C4)cc2)ccc1O.[Br-] [Compound 122]
- Residual rate after incubation of dog lung homogenate (%) [5]: 92%
- liver extraction rate (ERh) [1]: 0.93
- EC50 [6]: 15.6 ± 3.6 nM
- EC50 ([7]; read-out: BA (EC50, nM)): 36.8 ± 4.1 nM
- Residual rate after incubation of human lung homogenate (%) [8]: 95%
- liver extraction rate (ERh) [2]: 0.97
- liver extraction rate (ERh) [3]: 0.98
- EC50 [9]: 56.7 ± 6.6 nM
- 0.5-4 h area increase under heart rate curve (%) ([4]; 0.01 mg/kg iv): 6.6%
- 0.5-4 h area increase under heart rate curve (%) ([4]; 0.10 mg/kg iv): 0%

Compound: C[N+]1(C)[C@@H]2C[C@@H](OC(=O)C(O)(c3cccs3)c3cccs3)C[C@H]1[C@@H]1O[C@@H]12 [Tiotropium Bromide, tiotropium bromide, reference compound]
- Onset time (min) ± SD ([10]; in vitro): slow
- Time for eliminating inhibition effect (min) ([10]; in vitro): long duration of action
- Onset time (min) ± SD [10, 13]: 30.37 ± 0.50 min
- Time for eliminating inhibition effect (min) [10, 13]: more than 300 min
- EC50 ([10]; constriction induced by CCh 3 × 10^−6 mol/L, in vitro): 0.0142 ± 0.0022 µM
- EC50 [9]: 12.2 ± 0.8 nM

Compound: OCc1cc(C(O)CNCCCCCCOCCCCc2ccccc2)ccc1O (stereo not drawn) [Salmeterol, reference compound]
- EC50 ([7]; histamine 3×10^−5 mol/L, read-out: BA (EC50)): 93.8 ± 6.8 nM

Compound: CC(NC[C@H](O)c1ccc(O)c(CO)c1)c1ccc(OCCC[N+]23CCC(CC2)[C@@H](OC[C@@](O)(c2ccccc2)C2CCCC2)C3)cc1 (stereo partly drawn) [Compound 69]
- Residual rate after incubation of dog lung homogenate (%) [5]: 90%
- liver extraction rate (ERh) [1]: 0.95
- EC50 [6]: 7.6 ± 1.8 nM
- EC50 ([7]; read-out: BA (EC50, nM)): 18.7 ± 2.8 nM
- Residual rate after incubation of human lung homogenate (%) [8]: 94%
- liver extraction rate (ERh) [2]: 0.96
- liver extraction rate (ERh) [3]: 0.94
- EC50 [9]: 27.7 ± 3.4 nM
- 0.5-4 h area increase under heart rate curve (%) ([4]; 0.01 mg/kg iv): −5.1%
- 0.5-4 h area increase under heart rate curve (%) ([4]; 0.10 mg/kg iv): −3.4%

Compound: O=c1ccc2c([C@@H](O)CNCCCCCCCCCN3CCC(Cn4cnc([C@](O)(c5ccccc5)C5CCCCC5)n4)CC3)ccc(O)c2[nH]1 [5-[(1R)-2-({9-[4-({3-[(R)-cyclohexyl(hydroxy)benzyl)-1H-1,2,4-triazol-1-yl}methyl)piperidin-1-yl]nonyl}amino)-1-hydroxyethyl]-8-hydroxyquinolin-2(1H)-one, reference compound]
- liver extraction rate (ERh) [1]: 0.62
- liver extraction rate (ERh) [2]: 0.42
- liver extraction rate (ERh) [3]: 0.36
- 0.5-4 h area increase under heart rate curve (%) ([4]; 0.01 mg/kg iv): 69.7%
- 0.5-4 h area increase under heart rate curve (%) ([4]; 0.10 mg/kg iv): 152%

Compound: OCc1cc([C@@H](O)CNCCOCCCOCC[N+]23CCC(CC2)[C@@H](OC[C@@](O)(c2ccccc2)C2CCCC2)C3)ccc1O.[Br-] [Compound 48]
- Onset time (min) ± SD ([10]; in vitro): 6.32 ± 0.49 min
- Time for eliminating inhibition effect (min) ([10]; in vitro): more than 300 min
- EC50 [10]: 0.0154 ± 0.012 µM
- sel (β1/β2) [11]: 423.8
- Cdyn (ml/cmH2O) ([12]; 0.1 μg/kg airway dripping): 0.115 ± 0.011 ml/cmH2O
- Raw (cmH2O/ml/s) ([12]; 0.1 μg/kg airway dripping): 0.712 ± 0.065 cmH2O/ml/s
- inhibitory rate of lung dynamic compliance decrease ([12]; 0.1 μg/kg airway dripping): 32.2%
- inhibitory rate on airway resistance increase ([12]; 0.1 μg/kg airway dripping): 66.2%
- Cdyn (ml/cmH2O) ([12]; 0.3 μg/kg airway dripping): 0.139 ± 0.012 ml/cmH2O
- Raw (cmH2O/ml/s) ([12]; 0.3 μg/kg airway dripping): 0.523 ± 0.032 cmH2O/ml/s
- inhibitory rate of lung dynamic compliance decrease ([12]; 0.3 μg/kg airway dripping): 48.9%
- inhibitory rate on airway resistance increase ([12]; 0.3 μg/kg airway dripping): 88.3%
- Cdyn (ml/cmH2O) ([12]; 1 μg/kg airway dripping): 0.207 ± 0.016 ml/cmH2O
- Raw (cmH2O/ml/s) ([12]; 1 μg/kg airway dripping): 0.493 ± 0.071 cmH2O/ml/s
- inhibitory rate of lung dynamic compliance decrease ([12]; 1 μg/kg airway dripping): 50.1%
- inhibitory rate on airway resistance increase ([12]; 1 μg/kg airway dripping): 91.6%
